# Laboratory results published in patent EP0082731A1, “The use of peptides as medicaments” (NOVO INDUSTRI A/S, priority 1981, dated 1983).
# Key:
# [1] = test system: isolated perfused rat pancreas; assay: IRI (insulin) release from the isolated perfused rat pancreas
# From the text: Such a use should be especially safe as no hypoglycaemia will occur during treatment because of the lack of IRI releasing effect in the presence of hypoglycaemia and normoglycaemia.
# Furthermore, it is stated therein that compounds of formula I show no or minor, negligible metabolic effects. […] Based thereupon it is surprising that compounds of formula I have an insulin releasing effect on animals primed with glucose corresponding to hyperglycaemia.
# rats = assay: Experiment B1: effect on blood glucose in rats in vivo, intravenous glucose infusion; set-up: species or system Wistar rats; settings: for Blood glucose: rats, i.v. glucose 2 mg/min 0-30 min, then infusion of 1 mg glucagon(1-21) 30-60 min
# Description: Blood samples were drawn from the carotid artery at the times 0, 2, 5, 10, 20, 25, 30, 40, 50, and 60 minutes and blood glucose values were determined by the hexokinase method on an autoanalyzer. The blood glucose values are stated in Table II below.
substance,measurement,setting,value
"glucagon-(1-21)-heneicosapeptide (HSQGTFTSDYSKYLDSRRAQD; Glucagon; UniProt P01275 53-73, looked up, fragment) [glucagon(1-21)]",insulin releasing effect,[1]; at hyperglycaemia,have this effect
same,insulin release,"[1]; buffer glucose concentration 0.6 mg/ml corresponding to hypoglycaemia, infused to the same concentration as glucagon",no such effect
same,"IRI (immunoreactive insulin) releasing effect, as share of glucagon's",[1]; buffer glucose concentration 1.5 mg/ml corresponding to mild hyperglycaemia,about 60%
same,"IRI (immunoreactive insulin) releasing effect, as share of glucagon's",[1]; buffer glucose concentration 2.0 mg/ml corresponding to hyperglycaemia,about 85%
same,glucose tolerance,"rats; glucose primed rats, infused intravenously",improves the glucose tolerance
same,Blood glucose,rats; time 0 min,1.0 mg/mL
same,Blood glucose,rats; time 2 min,1.2 mg/mL
same,Blood glucose,rats; time 5 min,1.4 mg/mL
same,Blood glucose,rats; time 10 min,1.5 mg/mL
same,Blood glucose,rats; time 20 min,1.7 mg/mL
same,Blood glucose,rats; time 25 min,1.9 mg/mL
same,Blood glucose,rats; time 30 min,1.9 mg/mL
same,Blood glucose,rats; time 40 min,1.3 mg/mL
same,Blood glucose,rats; time 50 min,1.0 mg/mL
same,Blood glucose,rats; time 60 min,0.8 mg/mL
